# According to patent US20100124537A1 (priority 2007, published 2010):
# “Also recorded” adds a separate entry of the source. Read-outs that look alike come from different tables or passages of the source.
# What was measured:
# [1] = 2-3 years old rats with low initial blood AKG (below 0.1 ug/ml), feed additive; controls did not survive; cited from earlier work
# [2] = tested on: H. pylori, strain 119/95; experiment: Mice infectious model with H. pylori, three intragastric doses of alpha-ketoglutaric acid salts, culture on GAB-CAMP agar (Example 2); format: in vivo, BALB/cA mice; settings: for H. pylori colonies cultured from gastric mucosa: infected mice treated 3 consecutive days, 8 days after infection (Group III B); for effect on colonisation of gastric mucosa by H. pylori: three intragastric administrations on 3 consecutive days, started 8 days after last infective dose
# Description: Eight days after the last challenge, sixteen mice were inoculated intragastrically through the tube for three successive days with 0.2 ml of 30 mM solution of salts of alpha-ketoglutaric acid (group III B). The remaining eight mice were sham-treated with 0.2 ml of 0.01 M PBS (group III) according to the procedure with group III.
# Eight days after above treatment sixteen mice were inoculated with the tube for three consecutive days with salts of […] (0.2 ml, concentration 30 mM) (group IV B). The remaining eight mice were treated with 0.2 ml 0.01 M PBS (group IV).
# Stomach and blood were samples were collected for the further studies.
# (§1) DNA was also isolated to perform PCR with primers (5′-[…]-3′ and 5′-[…]-3′) recognizing 16S rDNA fragment in DNA of bacteria from Helicobacter genus. Afterwards PCR products in size 470 by were separated according to denaturating gradient gel electrophoresis technique (DGGE) and sequenced. […] Electrophoresis run at a temp of 60° C. in 125 V during 16 h.
# [3] = tested on: bacteria from Helicobacter genus (16S rDNA); experiment: 16S rDNA PCR, DGGE and sequencing of stomach mucosa homogenates (Example 2); format: in vivo, BALB/cA mice; settings: for H. pylori DNA / sequences specific for H. pylori in PCR products: infected mice treated with alpha-ketoglutarate (Group III B), ethidium bromide staining
# Description: as §1
# [4] = Morphology of stomach and small intestine mucosa in mice given alpha-ketoglutarate; format: in vivo; settings: mice infected with H. pylori and following inoculation with alpha-ketoglutarate
# [5] = tested on: lactic acid bacteria; experiment: Lactic acid bacteria isolated from scraped stomach mucosa (antral part); format: in vivo; settings: animals tested, including mice infected with H. pylori and then inoculated with alpha-ketoglutarate
# [6] = tested on: H. pylori infection; experiment: Volunteers with confirmed H. pylori infection taking the calcium salt with a milk drink (Example 4); format: in vivo, human; settings: after two-week treatment
# [7] = tested on: H. pylori, strain 119/95
# Description: Laboratory experimental animals: twenty eight 6 week-old BALB/cA (female) mice weighing 25±2 g (FIG. 1). […] Two weeks after the last challenge, seven mice were inoculated intragastrically for nine successive days by the same method with a solution of calcium or sodium salt of alpha-ketoglutaric acid (0.2 ml, at concentration 30 mM) (group I A). The remaining seven mice were sham-treated with 0.01 M phosphorate buffer—PBS (group I B) as animals from group I A.
# Further fourteen mice from group II A and II B were treated with 0.2 ml PBS according to the scheme operating by the infection of the animals with H. pylori. Two weeks after the above treatment seven mice were continuously inoculated with PBS (0.2 ml) for three consecutive days. The remaining seven mice were treated with a solution of salts of alpha-ketoglutaric acid (0.2 ml, concentration 30 mM) (group II A).
# On the 30th day of the experiment all mice were sacrificed using CO2. For further analyses blood and stomach samples from mice infected with H. pylori with or without the following inoculation with salts of alpha-ketoglutaric acid were collected. In this experiment the relationship between colonisation level of mouse stomach mucosa (n=28) by H. pylori and the mice treated intragastrically with salts of alpha-ketoglutaric acid were studied in accordance with the time regime as described above.
# 37° C., under microaerophilic conditions for 7-10 days. From the half of the antrum gastric mucosa was scraped off and mixed with 500 μl PBS sterilized. After homogenate balancing it was noticed that the amount of the scraped mucosa from the half of the antrum was generally between 40 μg a 50 μg. For calculation of number of H. pylori cells, a 100 μl of gastric mucosa homogenate was smeared onto GAB-CAMP agar plates and incubated at temp. 37° C., for 5-10 days, under microaerophilic conditions. Homogenized mucosa samples from each mouse were examined in triplicate. The results are presented as the mean value±SD. The presence of H. pylori was identified by colony morphology and urease-, oxidase- and catalase tests, as well as by morphological examination of cells by Gram-staining.
# [8] = tested on: gastrin; settings: infected with H. pylori then alpha-ketoglutarate, versus control group (PBS); p<0.01
# [9] = tested on: cholecystokinin (CCK)
# [10] = PBS + AKG (Group IV B), non-infected mice
# [11] = listed as salts of alpha-ketoglutaric acid
# [12] = PBS + AKG (Group II A), non-infected mice
smiles,measurement,setting,value
O.O.O=C([O-])CCC(=O)C(=O)[O-].[Na+].[Na+] [Na2AKG*2H2O],survival of the experiment,[1],survived the experiment
"O=C(O)CCC(=O)C(=O)O [AKG, alpha-ketoglutarate]",H. pylori cultivated: Number of mice infected/in group,"[2]; H. pylori + AKG (Group III B), 0.2 ml 30 mM intragastrically for 3 days starting 8 days after last challenge, day 20",0/16
same,H. pylori cultivated: Number of bacteria (cfu)/mouse,"[2]; H. pylori + AKG (Group III B), H. pylori + PBS gave 4.3 × 10^2 ± 5.0 × 10^1",0 cfu/mouse
same,H. pylori cultivated: Number of bacteria (cfu)/mouse,[2]; [10],0 cfu/mouse
same,H. pylori cultivated: Number of mice infected/in group,[2]; [10],0/16
same,H. pylori colonies cultured from gastric mucosa,[2],no H. pylori colonies were found
same,H. pylori colonies cultured from gastric mucosa,[2]; [11],not found; also recorded: no H. pylori colony was cultured
same,effect on colonisation of gastric mucosa by H. pylori,[2],completely stopped colonisation and fully eradicated H. pylori
same,effect on colonisation of gastric mucosa by H. pylori,[2]; [11],total inhibitory effect on bacterial colonisation and fully eradication of H. pylori bacteria from gastric mucosa
same,16S rDNA PCR - Helicobacter genus: Number of mice with H. pylori DNA/in group,[3]; H. pylori + AKG (Group III B),0/16
same,16S rDNA PCR - Helicobacter genus: Number of mice with H. pylori DNA/in group,[3]; [10],0/16
same,H. pylori DNA / sequences specific for H. pylori in PCR products,[3],no H. pylori DNA was found
same,H. pylori DNA / sequences specific for H. pylori in PCR products,[3]; [11],not found
same,"morphological changes in thickening of mucosa in stomach and small intestine, villus width and crypt depth",[4],no morphological changes
same,changes in the amount of lactic acid bacteria isolated from scraped stomach mucosa (antral part),[5],no changes
same,time for which lack of dyspepsia symptoms was maintained after end of administration,[6],one
same,H. pylori cultivated: Number of mice infected/in group,"[7]; H. pylori + AKG (Group I A), 0.2 ml 30 mM intragastrically for 9 days starting 2 weeks after last challenge, day 30",7/7
same,H. pylori cultivated: Number of bacteria (cfu)/mouse,"[7]; H. pylori + AKG (Group I A), mean ± SD, H. pylori + PBS gave 7.8 × 10^2 ± 5.0 × 10^1",3.8 × 10^2 ± 5.0 × 10^1 cfu/mouse
same,H. pylori cultivated: Number of bacteria (cfu)/mouse,[7]; [12],0 cfu/mouse
same,H. pylori cultivated: Number of mice infected/in group,[7]; [12],0/7
same,number of colonies (mean±SD) isolated from antral/pyloric part of gastric mucosa,"[7]; infected mice treated 9 days (Group I A), infected only 7.8×10^2±5.0×10^1",3.8×10^2±5.0×10^1
same,reduction of degree of gastric mucosa colonisation by H. pylori,"[7]; nine intragastric administrations on 9 consecutive days, started 14 days after last infective dose, versus mice infected only",49%
same,reduction in the number of gastrin-producing cells in the pyloric region of the stomach glands,[8],17%
same,differences in number of CCK-producing cells in the small intestine,"[9]; H. pylori + alpha-ketoglutarate versus alpha-ketoglutarate only, p=0.25",no significant differences
same,decrease in number of CCK producing cells in the small intestine,"[9]; animals treated with alpha-ketoglutarate versus non-infected mice given only PBS, tendency, p=0.1",30%
